Data reported in patent publication US20070004660A1, “Synergistic Modulation of Flt3 Kinase Using Alkylquinolines and Alkylquinazolines” (priority 2005, published 2007).

Each compound was assayed against T1, wild-type FLT3 receptor (Homo sapiens, UniProt P36888) (assay: Cell-based FLT3 receptor ELISA (FLT ligand-induced phosphorylation in Baf3 FLT3 cells)). Conditions: 100 ng/mL Flt ligand, uncertainty ±20%.
T1 construct: host or cells: Baf3 (murine B cell lymphoma line), stably transfected
T1 sequence (P36888 27-993): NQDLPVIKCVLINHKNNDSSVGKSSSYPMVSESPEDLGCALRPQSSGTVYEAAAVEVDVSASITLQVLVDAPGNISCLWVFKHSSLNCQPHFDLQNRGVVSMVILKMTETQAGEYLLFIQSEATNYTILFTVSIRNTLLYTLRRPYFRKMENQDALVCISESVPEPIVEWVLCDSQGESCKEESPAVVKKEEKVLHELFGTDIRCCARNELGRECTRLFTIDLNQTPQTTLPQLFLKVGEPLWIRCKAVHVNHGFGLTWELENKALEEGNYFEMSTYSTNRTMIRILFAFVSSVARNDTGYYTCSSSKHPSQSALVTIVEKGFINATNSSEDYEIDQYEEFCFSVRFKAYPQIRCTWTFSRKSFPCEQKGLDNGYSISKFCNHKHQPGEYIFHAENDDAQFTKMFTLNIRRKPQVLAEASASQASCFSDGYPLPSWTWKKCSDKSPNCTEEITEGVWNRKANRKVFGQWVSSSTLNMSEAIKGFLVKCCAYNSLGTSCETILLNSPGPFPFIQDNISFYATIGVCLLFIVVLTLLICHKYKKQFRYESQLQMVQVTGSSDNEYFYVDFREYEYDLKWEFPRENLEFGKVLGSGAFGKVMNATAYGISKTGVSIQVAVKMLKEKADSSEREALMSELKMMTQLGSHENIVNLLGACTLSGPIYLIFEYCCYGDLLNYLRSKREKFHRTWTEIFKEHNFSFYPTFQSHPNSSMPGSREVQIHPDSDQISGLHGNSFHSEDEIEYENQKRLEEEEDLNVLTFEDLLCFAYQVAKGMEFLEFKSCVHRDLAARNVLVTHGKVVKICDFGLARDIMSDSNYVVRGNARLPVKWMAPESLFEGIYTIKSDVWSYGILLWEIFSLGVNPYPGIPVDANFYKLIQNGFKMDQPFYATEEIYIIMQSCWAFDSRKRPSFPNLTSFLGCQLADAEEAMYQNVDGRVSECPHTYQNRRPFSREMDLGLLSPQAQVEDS
Summary of the method: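 Receptor phosphotyrosine measured by sandwich ELISA (anti-FLT3 capture, HRP anti-pTyr, luminescence) in FLT3-transfected murine Baf3 cells given 1 h compound pretreatment and 10 min 100 ng/mL FLT ligand after overnight low-serum starvation; triplicates, IC50 from nonlinear regression.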

SMILES | IC50 [nM]
CC(=O)N1CCN(c2ccc3c(C4CCN(C(=O)Nc5ccc(N6CCOCC6)cc5)CC4)ncnc3c2)CC1 [Example 141, 4-[7-(4-Acetyl-piperazin-1-yl)-quinazolin-4-yl]-piperidine-1-carboxylic acid (4-morpholin-4-yl-phenyl)-amide] | 2
CN(C)C(=O)N1CCN(c2ccc3c(C4CCN(C(=O)Nc5ccc(N6CCOCC6)cc5)CC4)ncnc3c2)CC1 [Example 143, 4-{4-[1-(4-Morpholin-4-yl-phenylcarbamoyl)-piperidin-4-yl]-quinazolin-7-yl}-piperazine-1-carboxylic acid dimethylamide] | 1
COc1cc2ncnc(C3CCN(C(=O)Nc4ccc5[nH]ccc5c4)CC3)c2cc1OC [Example 23, 4-(6,7-Dimethoxy-quinazolin-4-yl)-piperidine-1-carboxylic acid (1H-indol-5-yl)-amide] | 900
O=C(Nc1ccc(N2CCOCC2)cc1)N1CCC(c2ncnc3cc(N4CCC[C@@H]4CO)ccc23)CC1 [Example 132, (R)-4-[7-(2-Hydroxymethyl-pyrrolidin-1-yl)-quinazolin-4-yl]-piperidine-1-carboxylic acid (4-morpholin-4-yl-phenyl)-amide] | 27
O=C(Nc1ccc(N2CCCC2)cc1)N1CCC(c2ncnc3cc(NCCO)ccc23)CC1 [Example 175, 4-[7-(2-Hydroxy-ethylamino)-quinazolin-4-yl]-piperidine-1-carboxylic acid (4-pyrrolidin-1-yl-phenyl)-amide] | 6
CN1CCN(CCCOc2cc3ncnc(C4CCN(C(=O)Nc5ccc(N6CCOCC6)cc5)CC4)c3cc2F)CC1 [Compound 205, 4-{6-Fluoro-7-[3-(4-methyl-piperazin-1-yl)-propoxy]-quinazolin-4-yl}-piperidine-1-carboxylic acid (4-morpholin-4-yl-phenyl)-amide] | 6
O=C(Nc1ccc(N2CCCC2)cc1)N1CCC(c2ncnc3cc(O[C@H]4CCOC4)ccc23)CC1 [Compound 190, (S)-4-[7-(Tetrahydro-furan-3-yloxy)-quinazolin-4-yl]-piperidine-1-carboxylic acid (4-pyrrolidin-1-yl-phenyl)-amide] | 109
CN1CCN(CCOc2ccc3c(C4CCN(C(=O)Nc5ccc(N6CCCC6)cc5)CC4)ncnc3c2)CC1=O [Compound 202, 4-{7-[2-(4-Methyl-3-oxo-piperazin-1-yl)-ethoxy]-quinazolin-4-yl}-piperidine-1-carboxylic acid (4-pyrrolidin-1-yl-phenyl)-amide] | 15
CN1CCN(c2ccc3c(C4CCN(C(=O)Nc5ccc(N6CCCC6)cc5)CC4)ncnc3c2)CC1=O [Compound 184, 4-[7-(4-Methyl-3-oxo-piperazin-1-yl)-quinazolin-4-yl]-piperidine-1-carboxylic acid (4-pyrrolidin-1-yl-phenyl)-amide] | 98
CCNC(=O)N1CCN(c2ccc3c(C4CCN(C(=O)Nc5ccc(N6CCCC6)cc5)CC4)ncnc3c2)CC1 [Compound 199, 4-{4-[1-(4-Pyrrolidin-1-yl-phenylcarbamoyl)-piperidin-4-yl]-quinazolin-7-yl}-piperazine-1-carboxylic acid ethylamide] | 40
O=C(Nc1ccc(N2CCOCC2)cc1)N1CCC(c2ncnc3cc(OCCN4CCC[C@H]4CO)ccc23)CC1 [Example 153, (S)-4-{7-[2-(2-Hydroxymethyl-pyrrolidin-1-yl)-ethoxy]-quinazolin-4-yl}-piperidine-1-carboxylic acid (4-morpholin-4-yl-phenyl)-amide] | 110
CN1CCN(c2ccc3c(C4CCN(C(=O)Nc5ccc(N6CCCC6)nc5)CC4)ncnc3c2)CC1 [Example 160, 4-[7-(4-Methyl-piperazin-1-yl)-quinazolin-4-yl]-piperidine-1-carboxylic acid (6-pyrrolidin-1-yl-pyridin-3-yl)-amide] | 11
O=C1CN(c2ccc3c(C4CCN(C(=O)Nc5ccc(N6CCCC6)cc5)CC4)ncnc3c2)CCN1 [Compound 183, 4-[7-(3-Oxo-piperazin-1-yl)-quinazolin-4-yl]-piperidine-1-carboxylic acid (4-pyrrolidin-1-yl-phenyl)-amide] | 31
O=C(CO)N1CCN(c2ccc3c(C4CCN(C(=O)Nc5ccc(N6CCCC6)cc5)CC4)ncnc3c2)CC1 [Compound 201, 4-{7-[4-(2-Hydroxy-acetyl)-piperazin-1-yl]-quinazolin-7-yl}-piperidine-1-carboxylic acid (4-pyrrolidin-1-yl-phenyl)-amide] | 65
CN1CCC[C@H]1COc1ccc2c(C3CCN(C(=O)Nc4ccc(N5CCCC5)cc4)CC3)ncnc2c1 [Example 151, (S)-4-[7-(1-Methyl-pyrrolidin-2-ylmethoxy)-quinazolin-4-yl]-piperidine-1-carboxylic acid (4-pyrrolidin-1-yl-phenyl)-amide] | 45
O=C(Nc1ccc(N2CCOCC2)cc1)N1CCC(c2ncnc3cc(N4CC[C@H](O)C4)ccc23)CC1 [Example 128, 4-[7-(3-Hydroxy-pyrrolidin-1-yl)-quinazolin-4-yl]-piperidine-1-carboxylic acid (4-morpholin-4-yl-phenyl)-amide] | 58
O=C(Nc1ccc(N2CCCC2)cc1)N1CCC(c2ncnc3cc(N4CCC(F)CC4)ccc23)CC1 [Compound 195, 4-[7-(4-Fluoro-piperidin-1-yl)-quinazolin-4-yl]-piperidine-1-carboxylic acid (4-pyrrolidin-1-yl-phenyl)-amide] | 81
CS(=O)(=O)N1CCN(c2ccc3c(C4CCN(C(=O)Nc5ccc(N6CCOCC6)cc5)CC4)ncnc3c2)CC1 [Example 142, 4-[7-(4-Methanesulfonyl-piperazin-1-yl)-quinazolin-4-yl]-piperidine-1-carboxylic acid (4-morpholin-4-yl-phenyl)-amide] | 5
O=C(Nc1ccc(N2CCOCC2)cc1)N1CCC(c2ncnc3cc(OCCCN4CCOCC4)ccc23)CC1 [Example 133, 4-[7-(3-Morpholin-4-yl-propoxy)-quinazolin-4-yl]-piperidine-1-carboxylic acid (4-morpholin-4-yl-phenyl)-amide] | 26
CNC(=O)C1CCN(c2ccc3c(C4CCN(C(=O)Nc5ccc(N6CCCC6)cc5)CC4)ncnc3c2)CC1 [Example 155, 4-[7-(4-Carboxylic acid methylamide-piperidin-1-yl)-quinazolin-4-yl]-piperidine-1-carboxylic acid (4-pyrrolidin-1-yl-phenyl)-amide] | 0.4
CN(C)C(=O)N1CCN(CCCOc2ccc3c(C4CCN(C(=O)Nc5ccc(N6CCCC6)cc5)CC4)ncnc3c2)CC1 [Example 165, 4-(3-{4-[1-(4-Pyrrolidin-1-yl-phenylcarbamoyl)-piperidin-4-yl]-quinazolin-7-yloxy}-propyl)-piperazine-1-carboxylic acid dimethylamide] | 4
O=C(Nc1ccc(N2CCCC2)cc1)N1CCC(c2ncnc3cc(N4CCCC4)ccc23)CC1 [Compound 179, 4-(7-Pyrrolidin-1-yl-quinazolin-4-yl)-piperidine-1-carboxylic acid (4-pyrrolidin-1-yl-phenyl)-amide] | 49
O=C(Nc1ccc(N2CCOCC2)cc1)N1CCC(c2ncnc3cc(N4CCOCC4)ccc23)CC1 [Example 145, 4-(7-Morpholin-4-yl-quinazolin-4-yl)-piperidine-1-carboxylic acid (4-morpholin-4-yl-phenyl)-amide] | 14
CC(C)Oc1ccc(NC(=O)N2CCC(c3ncnc4ccc(C#CCN5CCOCC5)cc34)CC2)cc1 [Example 15, 4-[6-(3-Morpholin-4-yl-prop-1-ynyl)-quinazolin-4-yl]-piperidine-1-carboxylic acid (4-isopropoxy-phenyl)-amide] | 55
CCN1CCN(c2ccc3c(C4CCN(C(=O)Nc5ccc(N6CCOCC6)cc5)CC4)ncnc3c2)CC1 [Example 136, 4-[7-(4-Ethyl-piperazin-1-yl)-quinazolin-4-yl]-piperidine-1-carboxylic acid (4-morpholin-4-yl-phenyl)-amide] | 36
CC(C)c1ccc(NC(=O)CN2CCC(c3ncnc4ccccc34)CC2)cc1 [Example 16, N-(4-Isopropyl-phenyl)-2-(4-quinazolin-4-yl-piperidin-1-yl)-acetamide] | 336
